In patent US20180125992A1, “DRUG DELIVERY CONJUGATES OF TERTIARY AMINE […]” (ENDOCYTE, INC., priority 2016, published 2018):
pIC50: −log10 of the molar value.

Tested on: KB cells
Assay: In vitro FR specific activity of folate conjugates: 3H-thymidine incorporation in KB cells
Type: cell-based
Details: 2 h pulse at 37° C., chase up to 72 h, without excess folate
Procedure: KB cells were seeded in individual 24-well Falcon plates and allowed to form nearly confluent monolayers overnight in FFRPMI/HIFCS. Thirty minutes prior to the addition of folate-conjugate, spent medium was aspirated from all wells and replaced with either fresh FFRPMI or FFRPMI supplemented with 100 μM FA. Each well then received 1 mL of medium containing increasing concentrations of folate-conjugate (3 wells per sample). Cells were pulsed for 2 h at 37° C., rinsed 4 times with 0.5 mL of medium and then chased in 1 mL of fresh medium up to 72 h. Spent medium was aspirated from all wells and replaced with fresh medium containing 5 μCi/mL of ^3H-thymidine. Following a 2 h incubation at 37° C., cells were washed 3 times with 0.5 mL of PBS and then treated with 0.5 mL of ice-cold 5% trichloroacetic acid per well. After 15 min, the trichloroacetic acid was aspirated and the cells solubilized by the addition of 0.5 mL of 0.25 N sodium hydroxide for 15 min at room temperature. Four hundred and fifty μL of each solubilized sample were transferred to scintillation vials containing 3 mL of Ecolume scintillation cocktail and counted in a liquid scintillation counter. Final results were expressed as the percentage of ^3H-thymidine incorporation relative to untreated controls.

Row | Structure (SMILES) | pIC50
1 | CCCC(=O)OCN(C(=O)[C@@H](NC(=O)[C@H]1CCCC[N+]1(C)CCSSC[C@H](NC(=O)[C@H](CC(=O)O)NC(=O)[C@H](CC(=O)O)NC(=O)[C@H](CCCNC(=N)N)NC(=O)[C@H](CC(=O)O)NC(=O)CC[C@H](NC(=O)c1ccc(NCc2cnc3nc(N)[nH]c(=O)c3n2)cc1)C(=O)O)C(=O)O)C(C)CC)[C@H](C[C@@H](OC(C)=O)c1nc(C(=O)N[C@@H](Cc2ccccc2)C[C@H](C)C(=O)OC)cs1)C(C)C (some centres unmarked) [Compound 1] | 8.30
2 | CC/C=C/CN(C(=O)[C@@H](NC(=O)[C@H]1CCCC[N+]1(C)Cc1ccc(SSC[C@H](NC(=O)[C@H](CC(=O)O)NC(=O)[C@H](CC(=O)O)NC(=O)[C@H](CCCNC(=N)N)NC(=O)[C@H](CC(=O)O)NC(=O)CC[C@H](NC(=O)c2ccc(NCc3cnc4nc(N)[nH]c(=O)c4n3)cc2)C(=O)O)C(=O)O)cc1)C(C)CC)[C@H](C[C@@H](OCC)c1nc(C(=O)N[C@@H](Cc2ccc(O)cc2)C[C@H](C)C(=O)O)cs1)C(C)C (some centres unmarked) [Compound 2] | 8.15
